The subject of one data set is human BRCA1 promoter. Put plainly: BRCA1-luciferase reporter assay (Steady-Glo) in stably transfected MCF7 cells. Format: cell-based. Conditions: Homo sapiens, MCF7-BRCA1-luciferase cells, dilution series; for EC50: MCF7, 48 h; for EC90: 48 hours. On the procedure:
Hygromycin selected MCF7 cells were seeded in 384-well tissue culture plates. The first two columns of each plate were empty so as to include established positive and negative controls. Each of the remaining 352 wells contained a compound to be screened. MCF7 cells were incubated with the compounds for 48 hours. Luciferase activity was measured using the Steady Glo Luciferase Assay System (Promega). Briefly, 5×10^6 MCF7 cells were transfected with […] of purified pGL4.14 containing the human BRCA1 promoter (pGL4.14-hBRCA) with Effectene as per manufacturers protocol (Qiagen). Stable transfectants were selected with […] Hygromicin B. 1×10^5 or 2×10^5 stable transfectants were tested for luciferase activity with the Steady-Glo Luciferase Assay System (Promega).
Hygromycin selected MCF-7 cells (e.g., MCF7 clone pGL4.14-hBRCA1.3) stably transfected with the human BRCA1-luciferase reporter construct (e.g., pGL4.14-hBRCA1.3) were seeded in 384-well white tissue culture plates (Becton Dickenson, San Diego, Calif.) at 1×10^4 cells/well. These cells were then stimulated with indicated concentrations of genistein (Sigma-Aldrich, St. Louis, Mo.) for 0, 6, 9, 24 and 48 hours. Luciferase activity was measured using the Steady Glo Luciferase Assay System (Promega). The data shown in FIG. 3A is representative of 3 individual experiments.
Two different chemical libraries were screened for the ability to enhance BRCA1 gene expression. To examine the effects of each compound on BRCA1 expression, the human BRCA1 promoter was cloned and inserted upstream of the firefly luciferase gene in the plasmid pGL4.14 (BRCA1-Luc) (Promega), as described above. The ER positive human breast cancer cell line, MCF7, was transfected and stable transfectants were selected with hygromycin.
Briefly, compounds were plated in a 384 well plate in a total volume of 20 μl. A ten point dilution series was used at concentrations—100 µM, 10 μM, 1 μM, 100 nM, 10 nM, 1 nM, 0.1 nM, 0.01 nM, 0.0001 nM, 0 (DMSO vehicle only). A second dilution series of 100 μM, 32.5 μM, […], 3.6 μM, 1.2 μM, 400 nM, 132.2 nM, 45 nM, 14.8 nM, 5 nM, and 1.65 nM was also used. MCF7-BRCA1-luciferase cells were added to the compounds at a concentration of 1×10^4 cells/well in a volume of 25 μl. The 384 well plates, containing the compounds+cells, were then incubated at 37° C. for 48 hours. After 48 hours, luciferase activity was measured with the Steady-Glo® Luciferase Assay System (Promega, Madison, Wis.).
For orientation: In a reporter assay the amount or activity of a reporter protein is the signal.

The subject of the next data set is MCF7 cells. Put plainly: Cell viability of MCF7 cells (CellTiter 96 AQueous One). Particulars: 48 hours. In kind it is cell-based, human. The procedure: Additionally, the compounds were tested for cell viability. Compounds were plated at 2× in 50 μl MEM in triplicate in a clear 96 well tissue culture plate. A ten point dilution series was used at concentrations—100 μM, 10 μM, 1 μM, 100 nM, […], 1 nM, 0.1 nM, 0.01 nM, 0.0001 nM, 0 (DMSO vehicle only). MCF7 cells (5×10^3) were added in a volume of 50 μl MEM to the appropriate wells, diluting the compounds to 1×. Cells were incubated at 37° C. for 48 hours. 20 μl of CellTiter 96® AQueous One Solution Reagent (Promega) was added to each well and incubated for 3 hours at 37° C. Absorbance was measured at 490 nm using the Perkin Elmer Victor 3V plate reader. Absorbance signals were normalized to DMSO vehicle control and were expressed as percent viable.

A further data set deals with BRCA1 protein. Nature of the data set: BRCA1 protein expression in MCF7 cells by Western blot. In kind it is cell-based, human. Conditions: 48 hours, compared to DMSO. The procedure: Compounds 29 and 30 were studied for BRCA1 and actin (e.g., housekeeping gene for normalization) protein expression. Briefly, MCF7 cells (2×10^6) in 2 ml MEM were plated in a 6 well tissue culture plate and were either left nonstimulated or treated with DMSO (vehicle control), […] Genistein, or 3 different concentrations of indicated test compound—3.65 μM, […], 32.5 μM. Following incubation at 37° C. for 48 hours, the media was removed and the cells were washed 1× with 500 μl of ice cold PBS. Another 500 μl of ice cold PBS was then added and the cells were scraped off the well and transferred to a microcentrifuge tube. To ensure all cells were removed from the well, an additional […] of ice cold PBS was added to the well and any remaining cells were combined with the initial cell harvest into the microcentrifuge tube. The cells were then pelleted by centrifugation for 5 min at 3000 rpm, 4° C. The supernate was removed and the pellet was then lysed in 150 μl of ice cold RIPA buffer+1× protease inhibitors, on ice for 30 minutes, vortexing occasionally. The cellular debris was then removed by centrifugation for 20 minutes at 11,000 rpm, 4° C. The remaining supernate, containing the extracted proteins, was then transferred to a microcentrifuge tube and quantified using the Bio-Rad DC assay. 100 μg of protein+1×SDS-PAGE sample buffer was loaded onto an 8% Tris glycine gel. The proteins were separated in a tris glycine running buffer at 125 volts for 90 minutes. The proteins were then transferred out of the gel onto PVDF in an overnight transfer with 20% methanol at 35 volts, 4° C. The PVDF membrane was then blocked with 5% milk/PBST (0.1%) for 1 hour at room temperature (RT). BRCA1 protein was detected using anti-BRCA1 (Ab-1, EMD Biosciences) at a 1:250 dilution in 3% milk/PBST, overnight at 4° C. […] To monitor equal protein loading, actin was detected using anti-actin at a 1:200,000 dilution in 5% milk/PBST for 1 hr at RT. […] Chemiluminescence was detected using the SuperSignal West Femto kit made by Pierce Biotechnology and the UVP imaging center. […]
In general terms: A western blot detects proteins with antibodies after separation by electrophoresis.

The test system of a further data set is BRCA1 RNA. Nature of the data set: BRCA1 RNA expression in MCF7 cells by qRT-PCR (TaqMan, 18S normalised). In kind it is cell-based, human. Particulars: 48 hours, 3.65-32.5 μM, compared to DMSO and genistein. On the procedure:
Compounds 29 and 30 were studied for BRCA1 and 18S (e.g., housekeeping gene for normalization) RNA expression. Briefly, MCF7 cells (2×10^6) in 2 ml MEM were plated in a 6 well tissue culture plate and were either left nonstimulated or treated with DMSO (vehicle control), 10 μM Genistein, or 3 different concentrations of indicated test compound—3.65 μM, 10.8 μM, 32.5 μM. Following incubation at 37° C. for 48 hours, the media was removed and RNA was extracted per manufacturer's protocol using the RNeasy Plus RNA extraction kit made by Qiagen. Complementary DNA (cDNA) was generated per manufacturer's protocol from 1000 ng extracted RNA in a 60 μl volume using the High Capacity cDNA kit made by Applied Biosystems. Gene expression of BRCA1 and 18S was detected with the TaqMan Gene Expression assay kit made by Applied Biosystems. […] The […] reaction was run on either the ABI real time system 7500 or 7000 (see, Analysis of Relative Gene Expression Data Using Real-Time Quantitative PCR and the 2^−ΔΔCT Method. Kenneth J. Livak^a and Thomas D. Schmittgen^b, 1. ^a Applied Biosystems, Foster City, Calif., 94404 ^b Department of Pharmaceutical Sciences, College of Pharmacy, Washington State University, Pullman, Wash., 99164-6534. Methods, Volume 25, Issue 4, December 2001, Pages 402-408).
(In general: Quantitative PCR measures a nucleic acid by following its amplification.)

One may read the EC50 as the concentration needed to bring the measured effect to its halfway point. Low values mean a more potent agent, high ones a less potent agent. The term EC90 denotes the concentration needed for an effect of 90%. A higher EC90 goes with weaker potency.

SMILES strings stand for the structures.

In the data set on human BRCA1 promoter, `Oc1c(F)cccc1/C=N/c1ccc2oc(-c3ccccc3)nc2c1` [Cmpd 1] yielded an EC50 of 6.82 µM and an EC90 of 54.9 µM. Besides, the “toxicity (cell viability) compared to genistein” value in the data set on MCF7 cells is “less toxic compared to genistein”.

`Cc1ccc(OCC(=O)O/N=C(\N)c2ccccn2)c(C)c1` [Cmpd 29]: in the data set on human BRCA1 promoter, the midpoint of the response, the EC50, lay at 8.49 µM and the 90% effect level (EC90) was put at 91.8 µM. In addition, in the data set with BRCA1 protein, the BRCA1 protein expression result is “increase endogenous BRCA1”. In addition, in the data set on BRCA1 RNA, the “BRCA1 RNA expression” value is on record as “increase BRCA1 RNA expression”.

Turning to `CCc1ccc(OCC(=O)O/N=C(\N)c2ccncc2)c(C)c1` [Cmpd 30], in the data set on human BRCA1 promoter, the concentration giving a half-maximal response (EC50) was determined as 4.13 µM and the 90% effect level (EC90) was put at 55.4 µM. In addition, the BRCA1 protein expression result in the data set on BRCA1 protein is “increase endogenous BRCA1”. Further, in the data set with BRCA1 RNA, the “BRCA1 RNA expression” value was “increase BRCA1 RNA expression”.

In the data set on human BRCA1 promoter, `CC(C)(C)C(=O)Nc1cccc(C(=O)Nc2ccc(Cl)cc2)c1` [Cmpd 2] yielded an EC50 of 70.5 µM and a 90% effect concentration (EC90) of 967 µM. Also, the “toxicity (cell viability) compared to genistein” value in the data set with MCF7 cells is on record as “less toxic compared to genistein”.
